# Measurements as given in article PMC4721142, “Randomized controlled studies on the efficacy of antiarthritic agents in inhibiting cartilage degeneration and pain associated with progression of osteoarthritis in the rat” (Arthritis Research & Therapy, 2016).
# Several values for one entry are separate records, joined by “and”; a condition that tells them apart may be missing. Equal values may be shown once.
# Experiments:
# MIA rat model of OA = assay: MIA trial 2 digital Randall-Selitto test (daily tacrolimus 0.3 or 0.6 mg/kg i.p., curcumin 50 mg/kg p.o., fluocinolone 0.01 mg/kg s.c.; weekly clonidine 0.1 mg/kg s.c.); assay type: in vivo; conditions: day 21; tacrolimus 0.3 mg/kg, other drugs single dose
# Method: The digital Randall-Selitto (dRS) test is said to be a reliable and repeatable measure of neuropathic, bone, and inflammatory pain behavior in several different models, including those of arthritic or joint pain [29, 31, 32]. Baseline and posttreatment values were evaluated using a dRS test device (IITC Life Science, Woodland Hills, CA, USA). Animals were allowed to acclimate to the testing room before all experimentation and for a minimum of 30 minutes before testing. To ensure that their hind limbs were accessible, the animals were gently suspended in a restraint sling. The joint compression threshold was measured once at each time point for the ipsilateral and contralateral knee joints. Pressure was applied gradually over approximately 10 seconds to the medial and lateral aspects of the knee joint. Measurements were taken from the first observed behavior of vocalization, struggle, or withdrawal. A cutoff value of 600 g was used to prevent injury to the animal.
# Following isoflurane anesthesia, 50 μl (2 mg) of MIA was injected into the synovial space of the left knee. Animals were randomly assigned to groups, and pain behavior was assessed 7, 14, 21, and 28 days following MIA injection and intervention using WB with the Stoelting incapacitance meter (trial 1) or the dRS test (trials 2 and 3). […] Animals received MIA treatment and then saline control or therapeutic. […] Histopathology was performed at each time point and at study termination. All studies were conducted in accordance with the International Association for the Study of Pain Guidelines and were approved by the Algos Therapeutics, Inc. Institutional Animal Care and Use Committee (IACUC) before initiation. Those running the studies were blind to the treatments. See Additional file 1 for further details.
# MMT/MCLT rat model of OA = assay: MMT/MCLT trial 1 histopathology (same doses); assay type: in vivo; set-up: key to Tibial cartilage degeneration score, 3-zone total: sum of three tibial zone scores (each on 5-point scale); key to Total joint score w/o femur / Total joint score / Total joint score without femur: sum: cartilage degeneration scores + mean osteophyte score; conditions: low or only dose; for Bone score / Depth ratio any matrix change, mean / Depth ratio any matrix change, zone 2 / Femoral cartilage degeneration score / Tibial cartilage degeneration score, 3-zone total / Tibial cartilage degeneration score, zone 1 / Tibial cartilage degeneration score, zone 2 / Tibial cartilage degeneration score, zone 3 / Tibial cartilage degeneration width, significant / Tibial cartilage degeneration width, total / Tibial osteophyte measure / Tibial osteophyte score / Total joint score / Total joint score w/o femur: mean; for % decrease, bone score / % decrease, depth ratio mean / % decrease, depth ratio zone 2 / % decrease, femoral cartilage degeneration score / % decrease, osteophyte measure / % decrease, osteophyte score / % decrease, significant degeneration width / % decrease, tibial score 3-zone total / % decrease, tibial score zone 1 / % decrease, tibial score zone 2 / % decrease, tibial score zone 3 / % decrease, total degeneration width / % decrease, total joint score / % decrease, total joint score w/o femur: vs saline group
# Text: For MMT/MCLT rat knee joints, sections were cut in 200-μm steps; stained with toluidine blue (also with a right and left half per section); and similarly analyzed for cartilage degeneration, proteoglycan loss, collagen damage, and osteophyte formation. Results were averaged across the three sections for an overall semiquantitative score. Regional differences across the tibial plateau were taken into consideration by dividing each section into three zones delineated using an ocular micrometer (outside, middle, and inside). Scores were based on the percentage of area affected within the zone.
# Cartilage degeneration in the tibia was scored on a 5-point scale as detailed in the Methods section of Additional file 1. The total extent of degeneration of the tibial plateau was measured (in micrometers) and included an analysis of cell loss, proteoglycan loss, and collagen damage. Significant cartilage degeneration reflecting any degeneration extending through more than 50 % of the cartilage thickness was also measured. Collagen damage across the medial tibial plateau (the most severely affected section of the two halves) was also quantified.
# Osteophytes and femoral cartilage degeneration were analyzed as detailed in Additional file 1. Scoring of the osteophytes and categorization into small, medium, and large was performed using an ocular micrometer. The actual osteophyte measurement (tidemark to farthest distance point extending toward the synovium) was also recorded. The femoral cartilage degeneration score and the three-zone sum of the tibial cartilage degeneration scores (mean of three levels) were summed to create a total cartilage degeneration score. The mean osteophyte score for each joint was added to this value to create a total joint score. […]
# Histopathology MMT/MCLT Model
# HeLa cells = assay: HeLa cell viability (CellTiter-Glo)
# Method in brief: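 HeLa cells with and without drug were tested for viability by CellTiter-Glo luminescence as a toxicity read-out. In the companion NF-κB reporter assay, cells co-transfected with NF-κB firefly and Renilla luciferase plasmids (8:1) were read by Dual-Glo 5 h later, normalized to viable cells and expressed as fold over unstimulated, untreated cells.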
Compound,Bone score (MMT/MCLT rat model of OA),"Depth ratio any matrix change, mean (MMT/MCLT rat model of OA)","Depth ratio any matrix change, zone 2 (MMT/MCLT rat model of OA)",Femoral cartilage degeneration score (MMT/MCLT rat model of OA),"Tibial cartilage degeneration score, 3-zone total (MMT/MCLT rat model of OA)","Tibial cartilage degeneration score, zone 1 (MMT/MCLT rat model of OA)","Tibial cartilage degeneration score, zone 2 (MMT/MCLT rat model of OA)","Tibial cartilage degeneration score, zone 3 (MMT/MCLT rat model of OA)","Tibial cartilage degeneration width, significant (MMT/MCLT rat model of OA) [µm]","Tibial cartilage degeneration width, total (MMT/MCLT rat model of OA) [µm]",Tibial osteophyte measure (MMT/MCLT rat model of OA) [µm],Tibial osteophyte score (MMT/MCLT rat model of OA),Total joint score (MMT/MCLT rat model of OA),Total joint score w/o femur (MMT/MCLT rat model of OA),"% decrease, bone score (MMT/MCLT rat model of OA) [%]","% decrease, depth ratio mean (MMT/MCLT rat model of OA) [%]","% decrease, depth ratio zone 2 (MMT/MCLT rat model of OA) [%]","% decrease, femoral cartilage degeneration score (MMT/MCLT rat model of OA) [%]","% decrease, osteophyte measure (MMT/MCLT rat model of OA) [%]","% decrease, osteophyte score (MMT/MCLT rat model of OA) [%]",further results
Clc1cccc(Cl)c1N=C1NCCN1 [Clonidine],2.88,0.35,0.16,1.29 and 1.29 ± 0.20,6.13,4.13,2.00,0.00,691.67,1175.00,540.00,3.92,11.33 and 11.33 ± 0.55,10.04,12,2,14,30,-5,0,"dRS, hours after dosing with significant difference (MIA rat model of OA): 3 h; % decrease, significant degeneration width (MMT/MCLT rat model of OA): 5%; % decrease, tibial score 3-zone total (MMT/MCLT rat model of OA): 6%; % decrease, tibial score zone 1 (MMT/MCLT rat model of OA): 4%; % decrease, tibial score zone 2 (MMT/MCLT rat model of OA): 9%; % decrease, tibial score zone 3 (MMT/MCLT rat model of OA): 100%; % decrease, total degeneration width (MMT/MCLT rat model of OA): 10%; % decrease, total joint score (MMT/MCLT rat model of OA): 8%; % decrease, total joint score w/o femur (MMT/MCLT rat model of OA): 4%"
CC1=C(CO)C(=O)O[C@@H]([C@@H](C)[C@H]2CC[C@H]3[C@@H]4C[C@H]5O[C@]56[C@@H](O)C=CC(=O)[C@]6(C)[C@H]4CC[C@]23C)C1 [Withaferin A],2.88,0.38,0.18,1.83 and 1.83 ± 0.52,6.04,4.13,1.88,0.04,637.50,1262.50,515.42,3.96,11.83 and 11.83 ± 0.61,10.00,12,-5,0,0,0,-1,"Non-toxic concentrations (HeLa cells): 0 to 17 M; % decrease, significant degeneration width (MMT/MCLT rat model of OA): 12%; % decrease, tibial score 3-zone total (MMT/MCLT rat model of OA): 8%; % decrease, tibial score zone 1 (MMT/MCLT rat model of OA): 4%; % decrease, tibial score zone 2 (MMT/MCLT rat model of OA): 15%; % decrease, tibial score zone 3 (MMT/MCLT rat model of OA): 0%; % decrease, total degeneration width (MMT/MCLT rat model of OA): 4%; % decrease, total joint score (MMT/MCLT rat model of OA): 4%; % decrease, total joint score w/o femur (MMT/MCLT rat model of OA): 4%"
